Where two headings read alike, the source gives them in different places.
What was measured:
human DAT = biological target: T1, human DAT (Homo sapiens, UniProt Q01959); experiment: Uptake inhibition assay, DAT; format: cell-based; settings: HEK293 cells expressing human DAT, 0.05 µM [3H]MPP+; for IC50: given as a range
T1 construct: expressed in transfected cells

human NET = biological target: T2, human NET (Homo sapiens, UniProt P23975); experiment: cell-based; format: cell-based
T2 construct: expressed in transfected cells

human OCT1 [1] = biological target: T3, human OCT1 (Homo sapiens, UniProt O15245); experiment: cell-based
T3 sequence (O15245 1-554): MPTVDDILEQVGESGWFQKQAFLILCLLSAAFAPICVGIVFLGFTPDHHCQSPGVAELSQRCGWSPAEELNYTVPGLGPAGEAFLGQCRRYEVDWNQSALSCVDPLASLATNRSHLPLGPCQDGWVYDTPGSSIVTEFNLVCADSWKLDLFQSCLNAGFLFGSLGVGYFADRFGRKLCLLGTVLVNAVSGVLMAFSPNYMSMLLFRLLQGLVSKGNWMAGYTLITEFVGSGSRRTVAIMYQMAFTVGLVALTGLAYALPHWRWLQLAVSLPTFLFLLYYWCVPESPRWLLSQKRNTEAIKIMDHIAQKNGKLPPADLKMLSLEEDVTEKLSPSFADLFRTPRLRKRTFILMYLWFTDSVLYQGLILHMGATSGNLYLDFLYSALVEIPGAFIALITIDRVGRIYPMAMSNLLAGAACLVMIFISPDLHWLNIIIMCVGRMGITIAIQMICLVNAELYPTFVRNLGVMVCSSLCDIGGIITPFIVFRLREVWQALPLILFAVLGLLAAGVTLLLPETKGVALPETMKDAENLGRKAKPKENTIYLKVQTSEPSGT
Protocol: (§1) Cells were cultured in Dulbecco’s modified Eagle’s medium (DMEM) supplemented with 10% fetal bovine serum and 250 μg/mL geneticin to maintain selection pressure.
(§2) HEK293 cells heterologously expressing the respective transporters were seeded onto poly-D-lysine (PDL)-coated 96-well plates at a density of ∼36,000 cells per well, 1 day before experiments. For the experiment, medium was replaced with 200 µL Krebs HEPES buffer (KHB; 120 mM NaCl, 3 mM KCl, 2 mM CaCl2·2H2O, 2 mM MgCl2·6H2O, 20 mM D-glucose, pH 7.3). Test compounds were dissolved in Milli-Q water or dimethyl sulfoxide (DMSO) at 10–100 mM stock concentrations. Cells were preincubated for 5 min with the compound of interest (diluted in KHB to the indicated concentrations). The preincubation solution was then replaced with 50 µL/well of diluted compound together with tritiated substrate (DAT, OCT1, OCT2, OCT3: 0.05 μM [^3H]MPP^+; NET: 0.02 μM [^3H]MPP^+; SERT: 0.1 μM [^3H]5-HT) for 1 min (SERT) or 3 min (DAT, NET, OCT1– OCT3). After the incubation, uptake was terminated by rapidly washing cell with 200 μL KHB, followed by addition of 200 μL Ultima Gold™ XR scintillation cocktail (PerkinElmer, MA, United States) to each well. […] Uptake in the absence of inhibitor was defined as 100%, while uptake in presence of a reference inhibitor (hDAT, hNET: 50 μM GBR12909; hSERT: 3 μM paroxetine; OCT1–OCT3: 100 µM D22) was defined as nonspecific uptake (0%) and subtracted from all values.
(§3) Uptake is expressed as a percentage of control (uptake in the absence of test compound). Data represent mean ± SD of ≥3 independent experiments.

human OCT2 [2] = biological target: T4, human OCT2 (Homo sapiens, UniProt O15244); experiment: cell-based
T4 sequence (O15244 1-555): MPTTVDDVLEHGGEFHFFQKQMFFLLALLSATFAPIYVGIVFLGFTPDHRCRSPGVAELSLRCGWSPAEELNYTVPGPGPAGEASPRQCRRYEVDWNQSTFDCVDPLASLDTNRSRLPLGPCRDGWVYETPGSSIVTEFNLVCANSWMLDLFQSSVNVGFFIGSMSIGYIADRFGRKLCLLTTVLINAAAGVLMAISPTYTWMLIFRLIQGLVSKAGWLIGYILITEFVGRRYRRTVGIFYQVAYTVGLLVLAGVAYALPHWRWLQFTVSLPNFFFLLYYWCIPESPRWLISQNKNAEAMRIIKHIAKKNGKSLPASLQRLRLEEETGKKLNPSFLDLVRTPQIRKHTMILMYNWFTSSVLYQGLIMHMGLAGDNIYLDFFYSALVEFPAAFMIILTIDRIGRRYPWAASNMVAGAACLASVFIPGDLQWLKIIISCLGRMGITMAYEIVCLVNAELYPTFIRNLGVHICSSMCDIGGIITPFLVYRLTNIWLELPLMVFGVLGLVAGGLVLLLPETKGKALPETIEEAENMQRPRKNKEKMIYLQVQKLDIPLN
Protocol: as §1, §2, §3

human OCT3 [3] = biological target: T5, human OCT3 (Homo sapiens, UniProt O75751); experiment: Uptake inhibition assay, OCT3; format: cell-based; settings: HEK293 cells expressing human OCT3, 0.05 µM [3H]MPP+
T5 construct: expressed in transfected cells
T5 sequence (O75751 1-556): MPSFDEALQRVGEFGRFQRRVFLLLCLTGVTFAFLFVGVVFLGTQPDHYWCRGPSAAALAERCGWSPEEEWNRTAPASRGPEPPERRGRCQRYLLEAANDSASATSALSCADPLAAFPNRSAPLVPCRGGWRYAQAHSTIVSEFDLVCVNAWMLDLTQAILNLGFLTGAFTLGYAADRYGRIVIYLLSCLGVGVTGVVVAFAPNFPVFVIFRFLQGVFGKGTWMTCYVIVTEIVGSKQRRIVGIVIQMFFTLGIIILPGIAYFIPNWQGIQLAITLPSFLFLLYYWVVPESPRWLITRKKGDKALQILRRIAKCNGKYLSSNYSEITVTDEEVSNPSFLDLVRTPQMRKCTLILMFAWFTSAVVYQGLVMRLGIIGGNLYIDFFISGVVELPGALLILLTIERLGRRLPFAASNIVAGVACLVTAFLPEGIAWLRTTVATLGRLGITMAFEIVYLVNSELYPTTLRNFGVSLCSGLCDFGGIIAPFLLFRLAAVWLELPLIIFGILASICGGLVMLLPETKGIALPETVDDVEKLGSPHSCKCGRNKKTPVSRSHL
Protocol: as §1, §2, §3

human OCT3 [4] = biological target: T5, human OCT3; parameters: method as in Angenoorth et al., 2021; settings: ref Angenoorth et al., 2021; cited from earlier work
human OCT1 [5] = biological target: T3, human OCT1; parameters: expressed in transfected cells; method as in Angenoorth et al., 2021; settings: ref Angenoorth et al., 2021; cited from earlier work
human OCT2 [6] = biological target: T4, human OCT2; parameters: expressed in transfected cells; method as in Angenoorth et al., 2021; settings: ref Angenoorth et al., 2021; cited from earlier work
[7] = HEK293 cells expressing human NET, 0.02 µM [3H]MPP+, given as a range, read-out: IC50 of NET uptake inhibition
[8] = HEK293 cells expressing human NET, 0.02 µM [3H]MPP+

T1 sequence (Q01959 whole entry): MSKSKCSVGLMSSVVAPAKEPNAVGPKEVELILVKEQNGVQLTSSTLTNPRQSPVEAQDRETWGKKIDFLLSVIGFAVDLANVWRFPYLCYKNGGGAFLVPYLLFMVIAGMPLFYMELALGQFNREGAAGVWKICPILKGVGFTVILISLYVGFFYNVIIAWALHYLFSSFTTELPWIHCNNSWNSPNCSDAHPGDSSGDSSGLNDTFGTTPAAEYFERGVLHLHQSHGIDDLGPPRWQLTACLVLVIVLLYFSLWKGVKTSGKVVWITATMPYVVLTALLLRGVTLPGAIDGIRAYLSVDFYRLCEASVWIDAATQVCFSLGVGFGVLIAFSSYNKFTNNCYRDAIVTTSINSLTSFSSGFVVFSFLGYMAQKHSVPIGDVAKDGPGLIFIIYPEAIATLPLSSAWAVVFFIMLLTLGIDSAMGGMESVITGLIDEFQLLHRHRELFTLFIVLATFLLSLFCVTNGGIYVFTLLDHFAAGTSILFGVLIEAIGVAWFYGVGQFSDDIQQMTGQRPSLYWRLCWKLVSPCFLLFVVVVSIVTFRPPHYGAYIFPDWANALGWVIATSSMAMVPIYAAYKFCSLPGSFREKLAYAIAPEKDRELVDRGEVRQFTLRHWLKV
T2 sequence (P23975 whole entry): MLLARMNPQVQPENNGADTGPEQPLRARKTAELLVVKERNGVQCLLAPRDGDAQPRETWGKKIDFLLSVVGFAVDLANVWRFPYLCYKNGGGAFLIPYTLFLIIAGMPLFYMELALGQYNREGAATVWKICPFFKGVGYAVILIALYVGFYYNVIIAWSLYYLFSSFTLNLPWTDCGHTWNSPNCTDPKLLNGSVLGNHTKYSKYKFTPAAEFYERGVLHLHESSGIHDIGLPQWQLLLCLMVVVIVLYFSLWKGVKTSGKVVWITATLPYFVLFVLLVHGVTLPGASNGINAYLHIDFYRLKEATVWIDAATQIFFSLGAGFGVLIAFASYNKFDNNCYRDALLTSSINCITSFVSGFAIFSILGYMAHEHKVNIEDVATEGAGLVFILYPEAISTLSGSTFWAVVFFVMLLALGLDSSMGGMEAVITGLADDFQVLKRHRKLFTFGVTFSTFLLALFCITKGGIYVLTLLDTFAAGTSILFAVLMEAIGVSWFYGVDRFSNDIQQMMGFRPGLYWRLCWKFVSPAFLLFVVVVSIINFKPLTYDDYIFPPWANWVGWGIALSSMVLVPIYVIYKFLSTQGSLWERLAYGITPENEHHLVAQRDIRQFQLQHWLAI

SMILES | IC50 (human DAT) [µM] | Inhibition of OCT3-mediated transport (in words) (human OCT3 [3]) | Inhibitory activity at DAT (in words) (human DAT) | Inhibitory activity at NET (in words) (human NET; [8]) | also measured
CCOC(=O)c1ccc(N)cc1 [benzocaine, Ethyl 4-Aminobenzoate] | 17 to 27 | failed to inhibit |  |  | IC50 (human NET; [7]): 215 to 444 µM; Inhibition of [3H]MPP+ transport via OCT1 (in words) (human OCT1 [1]; HEK293 cells expressing human OCT1, 0.05 µM [3H]MPP+): failed to inhibit; Inhibition of [3H]MPP+ transport via OCT2 (in words) (human OCT2 [2]; HEK293 cells expressing human OCT2, 0.05 µM [3H]MPP+): failed to inhibit
COC(=O)[C@H]1[C@@H](OC(=O)c2ccccc2)C[C@@H]2CC[C@H]1N2C [cocaine] |  | none of the compounds—cocaine, procaine, or lidocaine—substantially inhibited OCT3-mediated transport except at near-millimolar concentrations |  |  | IC50 (human OCT1 [1]): 19 to 57 µM; IC50 (human OCT2 [2]): 15 to 42 µM; Inhibition of OCT3 (in words), previously reported (human OCT3 [4]): but not OCT3; Inhibition of OCT1 (in words), previously reported (human OCT1 [5]): inhibits OCT1 and OCT2; Inhibition of OCT2 (in words), previously reported (human OCT2 [6]): inhibits OCT1 and OCT2
c1ccc([C@H]2CN3CCSC3=N2)cc1 [levamisole] | 81 to 316 |  |  |  | IC50 (human NET): 60 to 106 µM
CCN(CC)CC(=O)Nc1c(C)cccc1C [lidocaine] |  |  | no inhibitory potency | no inhibitory potency | 
CC(=O)Nc1ccc(O)cc1 [paracetamol] |  |  | no measurable inhibitory activity | no measurable inhibitory activity | 
CCOc1ccc(NC(C)=O)cc1 [phenacetin] |  |  | no measurable inhibitory activity | no measurable inhibitory activity | 
CCN(CC)CCOC(=O)c1ccc(N)cc1 [procaine] | 15 to 29 | none of the compounds—cocaine, procaine, or lidocaine—substantially inhibited OCT3-mediated transport except at near-millimolar concentrations |  |  | IC50 (human NET; [7]): 88 to 146 µM; IC50 (human OCT1 [1]): 5 to 9 µM; IC50 (human OCT2 [2]): 10 to 24 µM

From publication PMC12672436 (Frontiers in Pharmacology, 2025)
